Key:
Format in all cases: cell-based
[1] = tested on: IL-1β cytokine output from THP-1s; assay: THP-1 AlphaLISA IL-1β cytokine assay (differentiated THP-1 cells, LPS then nigericin); details: 30 min pre-incubation, LPS 24 hr, nigericin 1 hour
Protocol: (§1) Measuring Inhibitory Effects on IL-1β and IL-6 Cytokine Output from THP-1s
(§2) The cytokine inhibition profiles of compounds of formula (I) were determined in a differentiated THP-1 cell assay. All assays were performed in RPMI-1640 growth medium (Gibco), supplemented with 10% fetal bovine serum (FBS; Gibco), 1% penicillin-streptomycin and 1% sodium pyruvate unless specified otherwise. The IL-1β and IL-6 cytokine inhibition assays were each run in a background of differentiated THP-1 cells as described below. All reagents described were from Sigma-Aldrich unless specified otherwise. Compounds were prepared as 10 mM DMSO stocks.
(§3) THP-1 cells were expanded as a suspension up to 80% confluence in appropriate growth medium. Cells were harvested, suspended, and treated with an appropriate concentration of phorbol 12-myristate 13-acetate (PMA) over a 72 hr period (37° C./5% CO2).
(§4) Following 72 hrs of THP-1 cell incubation, cellular medium was removed and replaced with fresh growth media containing 1% of FBS. Working concentrations of compounds were prepared separately in 10% FBS treated growth medium and pre-incubated with the cells for 30 minutes (37° C./5% CO2). Following the 30 minute compound pre-incubation, THP-1s were treated with an appropriate concentration of LPS and the THP-1s were subsequently incubated for a 24 hr period (37° C./5% CO2). An appropriate final concentration of Nigericin was then dispensed into the THP-1 plates and incubated for 1 hour (37° C./5% CO2) before THP-1 supernatants were harvested and collected in separate polypropylene 96-well holding plates.
(§5) Reagents from each of the IL-1β and IL-6 commercial kits (Perkin Elmer) were prepared and run according to the manufacturer's instructions. Subsequently, fluorescence signal detection in a microplate reader was measured (EnVision® Multilabel Reader, Perkin Elmer).
(§6) Percentage inhibition was calculated per cytokine by normalizing the sample data to the high and low controls used within each plate (+/−LPS respectively).

[2] = tested on: IL-6 cytokine output from THP-1s; assay: THP-1 AlphaLISA IL-6 cytokine assay (differentiated THP-1 cells, LPS then nigericin); details: 30 min pre-incubation, LPS 24 hr, nigericin 1 hour
Protocol: as §1, §2, §3, §4, §5, §6

[3] = tested on: NRF2 (nuclear factor erythroid 2-related factor 2); assay: NRF2 activation assay (DiscoverX PathHunter NRF2 translocation kit, U2OS cells); details: for Emax / EC50: Homo sapiens; for Emax: U2OS; for EC50: U2OS PathHunter cells, 6 hours
[4] = +GSH, normalised to dimethyl fumarate high control
[5] = −GSH, normalised to dimethyl fumarate high control
[6] = +GSH (30 minute compound/GSH pre-incubation)

| IC50 ([1]; Homo sapiens) | IC50 ([2]; Homo sapiens) | Structure (SMILES) | also measured |
| --- | --- | --- | --- |
| 10.5 µM | 3.5 µM | C=C(CC(=O)O[C@@H](C)c1ccc(C(F)(F)F)cc1)C(=O)NC [Example 10, (S)-1-(4-(trifluoromethyl)phenyl)ethyl 3-(methylcarbamoyl)but-3-enoate] |  |
| 18 µM | 11.3 µM | C=C(CC(=O)OC1(c2ccc(C(F)(F)F)cc2)CCC1)C(=O)NCCS(C)(=O)=O [Example 26, 1-(4-(trifluoromethyl)phenyl)cyclobutyl 3-((2-(methylsulfonyl)ethyl)carbamoyl)but-3-enoate] |  |
| 0.4 µM | 0.6 µM | C=C(Cc1nc(C2(c3ccc(SC(F)(F)F)cc3)CC2)no1)C(=O)Nc1cnccn1 [Example 2, N-(pyrazin-2-yl)-2-((3-(1-(4-((trifluoromethyl)thio)phenyl)cyclopropyl)-1,2,4-oxadiazol-5-yl)methyl)acrylamide] | Emax [3, 4]: 79%; Emax [3, 5]: 117%; EC50 [3, 6]: 5.2 µM; EC50 ([3]; −GSH): 0.9 µM |
| > 31.6 µM | 24.1 µM | C=C(CC(=O)OC1(c2ccc(C(F)(F)F)cc2)CCC1)C(=O)NC1CCN(C)CC1 [Example 23, 1-(4-(trifluoromethyl)phenyl)cyclobutyl 3-((1-methylpiperidin-4-yl)carbamoyl)but-3-enoate] |  |
| 17.5 µM | 3.3 µM | C=C(CC(=O)OC1(c2cc(Cl)cc(Cl)c2)CCC1)C(=O)NC [Example 19, 1-(3,5-dichlorophenyl)cyclobutyl 3-(methylcarbamoyl)but-3-enoate] |  |
| > 100 µM |  | C=C(Cc1ccccc1Cl)C(=O)O [2-(2-chlorobenzyl)acrylic acid, reference compound] | Emax [3, 4]: 9%; Emax [3, 5]: 2%; EC50 [3, 6]: > 100 µM; EC50 ([3]; −GSH): > 100 µM |
| 20 µM | 14.4 µM | C=C(CC(=O)O[C@H](C)c1ccc(C(F)(F)F)cc1)C(N)=O [Example 12, (R)-1-(4-(trifluoromethyl)phenyl)ethyl 3-carbamoylbut-3-enoate] |  |
|  |  | C=C(CC(=O)OCCCCCCCC)C(=O)O [4-octyl itaconate, reference compound] | IC50 [1]: 39.8 µM; IC50 [2]: 21.1 µM; NRF2 activation Emax, +GSH [3, 4]: 148%; NRF2 activation Emax, −GSH [3, 5]: 165% |
| 3.8 µM | 2.1 µM | C=C(CC(=O)OC(C)(C)CCCCCC)C(=O)Nc1cnccn1 [Example 6, 2-methyloctan-2-yl 3-(pyrazin-2-ylcarbamoyl)but-3-enoate] |  |
| 1.1 µM |  | C=C(Cc1nc(Cc2ccc(CCCC)cc2)no1)C(=O)Nc1cnccn1 [Example 4, 2-((3-(4-butylbenzyl)-1,2,4-oxadiazol-5-yl)methyl)-N-(pyrazin-2-yl)acrylamide] |  |
| 8.6 µM | 4.6 µM | C=C(CC(=O)OC1(c2ccc(C(F)(F)F)cn2)COC1)C(N)=O [Example 16, 3-(5-(trifluoromethyl)pyridin-2-yl)oxetan-3-yl 3-carbamoylbut-3-enoate] |  |
| 10 µM | 4.5 µM | C=C(CC(=O)O[C@@H](C)c1ccc(C(F)(F)F)cc1)C(N)=O [Example 9, (S)-1-(4-(trifluoromethyl)phenyl)ethyl 3-carbamoylbut-3-enoate] | Emax [3, 4]: 26%; Emax [3, 5]: 110%; EC50 [3, 6]: > 100 µM; EC50 ([3]; −GSH): 13.7 µM |
| 9.3 µM | 14.4 µM | C=C(CC(=O)OC1(c2ccc(C(F)(F)F)cn2)CCC1)C(N)=O [Example 18, 1-(5-(trifluoromethyl)pyridin-2-yl)cyclobutyl 3-carbamoylbut-3-enoate] |  |
| 1 µM | 0.9 µM | C=C(Cc1nc(C2(c3ccc(SC(F)(F)F)cc3)CC2)no1)C(=O)Nc1ncc(C)s1 [Example 1, N-(5-methylthiazol-2-yl)-2-((3-(1-(4-((trifluoromethyl)thio)phenyl)cyclopropyl)-1,2,4-oxadiazol-5-yl)methyl)acrylamide] |  |
| 20.5 µM | 12.1 µM | C=C(CC(=O)OC1(c2ccc(C(F)(F)F)cc2)CCC1)C(=O)NC [Example 7, 1-(4-(trifluoromethyl)phenyl)cyclobutyl 3-(methylcarbamoyl)but-3-enoate] | Emax [3, 4]: 27%; Emax [3, 5]: 119%; EC50 [3, 6]: > 100 µM; EC50 ([3]; −GSH): 12.6 µM |
| > 100 µM | > 100 µM | C=C(CC(=O)OC)C(=O)OC [dimethyl itaconate, reference compound] | Emax [3, 5]: 126% |
| 11 µM | 9.4 µM | C=C(CC(=O)OC1(c2ccc(C(F)(F)F)c(F)c2)CCC1)C(=O)NC [Example 22, 1-(3-fluoro-4-(trifluoromethyl)phenyl)cyclobutyl 3-(methylcarbamoyl)but-3-enoate] | Emax [3, 4]: 48%; Emax [3, 5]: 109%; EC50 [3, 6]: > 100 µM; EC50 ([3]; −GSH): 14.5 µM |
| 19.9 µM | 9.5 µM | C=C(CC(=O)OC1(c2ccc(C(F)(F)F)cc2)CCC1)C(=O)NC1CS(=O)(=O)C1 [Example 25, 1-(4-(trifluoromethyl)phenyl)cyclobutyl 3-((1,1-dioxidothietan-3-yl)carbamoyl)but-3-enoate] |  |
| 13.1 µM | 10.9 µM | C=C(CC(=O)OC1(c2ccc(C(F)(F)F)cn2)COC1)C(=O)NC [Example 15, 3-(5-(trifluoromethyl)pyridin-2-yl)oxetan-3-yl 3-(methylcarbamoyl)but-3-enoate] |  |
| 7.9 µM | 16.2 µM | C=C(Cc1nc(C2(c3ccc(SC(F)(F)F)cc3)CC2)no1)C(=O)NC(C(=O)O)C(F)(F)F (stereo not drawn) [Example 28, 3,3,3-trifluoro-2-(2-((3-(1-(4-((trifluoromethyl)thio)phenyl)cyclopropyl)-1,2,4-oxadiazol-5-yl)methyl)acrylamido)propanoic acid] | Emax [3, 4]: 34%; Emax [3, 5]: 67%; EC50 [3, 6]: > 100 µM; EC50 ([3]; −GSH): 31.8 µM |
| 17.5 µM | 2.6 µM | C=C(CC(=O)OC1(c2ccc(C(F)(F)F)cc2)COC1)C(=O)NC [Example 13, 3-(4-(trifluoromethyl)phenyl)oxetan-3-yl 3-(methylcarbamoyl)but-3-enoate] |  |
| 9.5 µM | > 100 µM | C=C(Cc1nc(C2(c3ccc(SC(F)(F)F)cc3)CC2)no1)C(=O)NCC(=O)O [Example 27, (2-((3-(1-(4-((trifluoromethyl)thio)phenyl)cyclopropyl)-1,2,4-oxadiazol-5-yl)methyl)acryloyl)glycine] | Emax [3, 4]: 20%; Emax [3, 5]: 26%; EC50 [3, 6]: > 100 µM; EC50 ([3]; −GSH): > 100 µM |
| 14.4 µM | 4.8 µM | C=C(CC(=O)OC1(c2ccc(C(F)(F)F)cn2)CCC1)C(=O)NC [Example 17, 1-(5-(trifluoromethyl)pyridin-2-yl)cyclobutyl 3-(methylcarbamoyl)but-3-enoate] |  |
| 8.6 µM | 6.8 µM | C=C(CC(=O)OC1(c2ccc(C(F)(F)F)cc2)CCC1)C(=O)NCCN1CCOCC1 [Example 24, 1-(4-(trifluoromethyl)phenyl)cyclobutyl 3-((2-morpholinoethyl)carbamoyl)but-3-enoate] |  |
| 15.4 µM | 6.9 µM | C=C(CC(=O)OC1(c2ccc(C(F)(F)F)c(F)c2)CCC1)C(N)=O [Example 21, 1-(3-fluoro-4-(trifluoromethyl)phenyl)cyclobutyl 3-carbamoylbut-3-enoate] |  |
| 1.9 µM |  | C=C(Cc1nc(Cc2ccc(CCCC)cc2)no1)C(=O)Nc1ncc(C)s1 [Example 5, 2-((3-(4-butylbenzyl)-1,2,4-oxadiazol-5-yl)methyl)-N-(5-methylthiazol-2-yl)acrylamide] |  |
| 3.3 µM | 1.9 µM | C=C(CC(=O)O[C@H](C)c1ccc(C(F)(F)F)cc1)C(=O)NC [Example 11, (R)-1-(4-(trifluoromethyl)phenyl)ethyl 3-(methylcarbamoyl)but-3-enoate] |  |
| 6.5 µM | 4.4 µM | C=C(CC(=O)OC1(c2ccc(C(F)(F)F)cc2)COC1)C(N)=O [Example 14, 3-(4-(trifluoromethyl)phenyl)oxetan-3-yl 3-carbamoylbut-3-enoate] |  |
| 4.5 µM |  | C=C(Cc1nc(Cc2ccc(CCCC)cc2)no1)C(=O)Nc1ccccn1 [Example 3, 2-((3-(4-butylbenzyl)-1,2,4-oxadiazol-5-yl)methyl)-N-(pyridin-2-yl)acrylamide] |  |

| Structure (SMILES) | IC50 ([1]; Homo sapiens) | IC50 ([2]; Homo sapiens) | also measured |
| --- | --- | --- | --- |
| C=C(CC(=O)OC1(c2ccc(C(F)(F)F)cc2)CCC1)C(=O)NCC(=O)O [Example 29, (2-methylene-4-oxo-4-(1-(4-(trifluoromethyl)phenyl)cyclobutoxy)butanoyl) glycine] | > 100 µM | > 31.6 µM |  |

From patent publication US20240335451A1, “ACRYLAMIDE DERIVATIVES USEFUL AS ANTI-INFLAMMATORY AGENTS” (Sitryx Therapeutics Limited, priority 2021, published 2024)
